Columns and labels:
Assay type in all cases: in vivo
Meloidogyne incognita = Meloidogyne incognita drench test (MELGIN D); conditions: soil, 504 h, 21 dat, read-out: % efficacy
Experimental: [table] To produce an appropriate active ingredient formulation, 1 part by weight of active ingredient is mixed with the specified amounts of solvent and emulsifier and the concentrate is diluted to the desired concentration with water, it being necessary to take into account the volume of soil into which drenching is effected. It should be ensured that a concentration of 20 ppm of emulsifier in the soil is not exceeded. For production of further test concentrations, the mixture is diluted with water. Pots filled with soil (loamy sand) are drenched with the active ingredient solution. An egg/larvae suspension of the southern root-knot nematode (Meloidogyne incognita) is added, and lettuce seeds are scattered over the soil surface and covered with quartz sand. The lettuce seeds germinate and the seedlings develop. The root-knots develop on the roots. After the desired time, the nematicidal effect is determined with reference to the root-knot formation in %. 100% means that no root-knots were found; 0% means that the number of root-knots on the treated plants corresponds to that on the untreated control.

Myzus persicae [1] = assay: Myzus persicae spray test (MYZUPE S), bell pepper plants; conditions: 144 h, 6 dat, read-out: % efficacy
Outline: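 Infested bell pepper plants (Capsicum annuum) sprayed with active ingredient in emulsifier-containing water (1000 ppm emulsifier; ammonium salts/penetrants at 1000 ppm if required). Kill scored in % after the chosen time; 100% = all aphids dead, 0% = none.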

Myzus persicae [2] = assay: Myzus persicae drench test (MYZUPE D), savoy cabbage plants; conditions: soil, 240 h, 0.16 ppm, 10 dat, read-out: % efficacy
Experimental: [table] To produce an appropriate active ingredient formulation, 1 part by weight of active ingredient is mixed with the specified amounts of solvent and emulsifier and the concentrate is diluted to the desired concentration with water, it being necessary to take into account the volume of soil into which drenching is effected. It should be ensured that a concentration of 40 ppm of emulsifier in the soil is not exceeded. For production of further test concentrations, the mixture is diluted with water. Savoy cabbage plants (Brassica oleracea) in soil pots, infested by all stages of the green peach aphid (Myzus persicae), are drenched with an active ingredient formulation of the desired concentration. After the desired time, the efficacy in % is determined. 100% means that all the aphids have been killed; 0% means that no aphids have been killed.

Nilaparvata lugens = Nilaparvata lugens spray test (NILALU); conditions: Nilaparvata lugens, 96 h, 4 g/ha, 4 dat, read-out: % efficacy
Outline: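 Rice plants (Oryza sativa) sprayed with compound formulated in solvent and water with 1000 ppm emulsifier, ammonium salts/penetrants at 1000 ppm if needed, then infested with brown planthopper larvae. After the set time, efficacy scored as % planthoppers killed (100% all, 0% none).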

Work on CCS(=O)(=O)c1ccc(NC(=O)NC)nc1-c1nc2cc(C(F)(F)C(F)(F)F)nnc2n1C [Example I-08, 1-{5-(ethylsulfonyl)-6-[7-methyl-3-(pentafluoroethyl)-7H-imidazo[4,5-c]pyridazin-6-yl]pyridin-2-yl}-3-methylurea] yielded an Emax at 1 ppm (Meloidogyne incognita; 1 ppm) of 100% and an Emax at 2 ppm (Meloidogyne incognita; 2 ppm) of 100%.
With CCS(=O)(=O)c1ccc(N(C)C(=O)NC)nc1-c1nc2cc(C(F)(F)C(F)(F)F)nnc2n1C [Example I-09] the Emax at 0.16 ppm (Myzus persicae [1]; 0.16 ppm) was 80%, the Emax at 0.8 ppm (Myzus persicae [1]; 0.8 ppm) was 100% and the Emax at 0.16 ppm (Myzus persicae [2]) was 99%.
Compound CCS(=O)(=O)c1ccc(NC(=O)N(C)C)nc1-c1nc2cc(C(F)(F)C(F)(F)F)nnc2n1C [Example I-10] has an Emax at 4 g/ha (Nilaparvata lugens) of 90%.

— patent US11089783B2, “2-(het)aryl-substituted fused heterocycle derivatives as pesticides” (Bayer Aktiengesellschaft, priority 2017, dated 2021)
